The values that follow come from patent US6921806B2, “Plant growth factor” (Kyowa Hakko Kogyo Co. Ltd., priority 1995, dated 2005).

The assay has as its system single asparagus cells. Kind of assay: bioassay of the plant growth factors: colony formation frequency of incubated single asparagus cells. The class given is cell-based, Asparagus officinalis L. The conditions noted are these: peptide made by synthesizer and enzymatic sulfation. Here is the method: Single asparagus cells, as obtained according to the method of Example 4, were implanted in the media, as prepared by the method of Example 5, and incubated with the present plant growth factor in the media. The influence of the plant growth factor on the proliferation of the incubated asparagus cells was determined by measuring the change in the colony formation frequency in each medium. Cells were incubated in a 24-well microtiter plate (IWAKI 3820-024). To each well of the microtiter were added 250 μl of a suspension of single asparagus cells as prepared at a cell density of 2-fold the intended final cell density, 125 μl of the liquid medium having a concentration of 4-fold the intended final concentration, and 125 μl of sterilized distilled water or 125 μl of CM as obtained in Example 6, sterilized through filtration (ADVANTEC DISMIC-13 cp, 0.20 μm) and diluted just before use, and fully stirred. Then, the plates were sealed with vinyl tape in order to prevent vaporization, in which the cells were incubated in the dark at 28° C. with shaking at 120 rpm (TAITEC BR-300L). […] On the basis of the data thus obtained for 3 wells or more, the colony formation frequency (C) and the cell viability (L) were calculated according to the following equations. […] The colony formation frequency for the asparagus cells at each CM concentration was determined. […]

[ ]: non-standard residue; d: D form. sY = N[C@@H](Cc1ccc(OS(=O)(=O)O)cc1)C(=O)O

For the substance H-[sY]I[sY]TQ-OH [compound (I-1)], the “biological activity of the synthesized peptide compared with isolated compound (I-1)” value is “exhibited the biological activity at the same concentrations”.
